What was measured:
[1] = system: Mycobacterium tuberculosis; test: MMV: Screen against Mtb, single point, non replicating, at 25uM; assay type: functional
[2] = system: Mycobacterium tuberculosis; test: MMV: Screen against Mtb, single point, replicating, at 25uM; assay type: functional

| Compound | inhibition at 25 µM [1] [%] | inhibition at 25 µM [2] [%] |
| --- | --- | --- |
| CCOc1ccc(-n2cc(-c3ccccc3)c3c(SCc4cc(C)ccc4C)ncnc32)cc1 | 21.9 | -0.392 |
| COc1ccc(-c2nc(N3CCN(C(=O)C4CCCCC4)CC3)c3c4c(sc3n2)CCCC4)cc1 | 12.7 | 14.2 |
| Cc1[nH]c(-c2ccc(F)cc2)cc1C(=O)NC1CCN(Cc2ccccc2)CC1 | 4 | 20.7 |
| O=C(CSc1ccc2nnc(-c3cccc(F)c3)n2n1)Nc1ccc2c(c1)OCO2 | 19.2 | 5.98 |
| O=c1nc(C=Cc2ccc(Cl)cc2)oc2ccccc12 | 7.84 | 46.8 |
| CCOc1cc(Br)c(C(C)NC(=O)c2cccc(OC)c2)cc1OCC (stereo not given) | 5.22 | 11.9 |
| COc1nc(Nc2ccc(C(C)C)cc2)nc(OC)n1 | 8.02 | 14 |
| CCOc1ccc(Nc2c3ccccc3nc3ccccc23)cc1 | 15.9 | 51.8 |
| COc1ccccc1N1CCN(C(CNS(=O)(=O)c2ccc(Cl)cc2)c2cccnc2)CC1 (stereo not given) | 15.2 | 4.01 |
| CCN(CC)c1ccc(NC(=O)c2cccs2)cc1 | 13.1 | 4.01 |
| CC(C)CNC(=O)c1c(N)n(CCc2ccccc2F)c2nc3ccccc3nc12 | 2.78 | 14.8 |
| O=C(Nc1ccc(N2CCCCC2)c(Cl)c1)c1ccc(Br)o1 | 11.9 | 18.9 |
| CCC(O)c1ccc(Br)cc1NC(=O)c1cccc(Cl)c1 (stereo not given) | 14.6 | 13.9 |
| CCOc1cccc2sc(N(Cc3cccnc3)C(=O)C3CCCCC3)nc12 | 14.3 | 13.9 |
| Cc1ccc(Cn2c(N3CCC(C(=O)NCc4cccs4)CC3)nc3ccccc32)cc1 | 5.22 | 44.4 |
| COc1cc(-c2nc(-c3ccc(Sc4ccccc4)cc3)c(-c3ccccc3)[nH]2)cc(OC)c1O | 13.6 | 16.5 |
| COc1ccc2nc(N)nc(C)c2c1 | -10.5 | 5.53 |
| COc1ccc(C=C2SC(=N)N(c3ccccc3OC)C2=O)cc1 | 6.97 | 24.5 |
| N=c1n(CCN2CCCCC2)c2ccccc2n1CC(O)c1cccc(Br)c1 (stereo not given) | 12.9 | 16.3 |
| c1ccc2c(NCCCCCCNc3c4c(nc5ccccc35)CCCC4)c3c(nc2c1)CCCC3 | 17.8 | 32.7 |
| CCN(CC)S(=O)(=O)c1ccc(-c2csc(Nc3ccc(C)c(C)c3)n2)cc1 | 14.1 | 6.89 |
| COc1ccc(CCn2c(=N)c(C(=O)NCc3cccnc3)cc3c(=O)n4cccc(C)c4nc32)cc1 | 8.77 | 4.47 |
| COc1ccc(-c2cc3c(nn2)-c2ccccc2C3=O)cc1 | 26.7 | 39 |
| OC(Cn1nnc2ccccc21)Cn1c2ccc(Br)cc2c2cc(Br)ccc21 (stereo not given) | -5.78 | 4.62 |
| CCOC(=O)C1=C(c2ccccc2)N=c2sc(=Cc3cc(C)n(-c4ccc(F)cc4)c3C)c(=O)n2C1c1cccc(OC)c1OC (stereo not given) | 6.1 | 1.88 |
| COc1ccc(C2=C(c3ccc(OC)cc3)C3(c4ccccc4)C(=O)C2(c2ccccc2)C2C(=O)N(c4ccc(C)cc4)C(=O)C23)cc1 (stereo not given) | 11 | 10.1 |
| CC(O)(c1ccc(Cl)cc1)C(CN1CCCCC1)c1ccccc1 (stereo not given) | 11.2 | 8.72 |
| Cc1ccc(C)c(-c2csc(Nc3ccc(C)c(C)c3)n2)c1 | 9.48 | 12.5 |

| Compound | inhibition at 25 µM [1] [%] | inhibition at 25 µM [2] [%] |
| --- | --- | --- |
| Cc1cc(Nc2ccc3ccccc3c2)n2ncnc2n1 | 19.9 | -2.52 |
| O=C1c2ccccc2C2=Nc3ccccc3SC(c3cccc(F)c3)C12 (stereo not given) | -5.43 | 7.45 |
| CN(C)c1ccc(C(O)(c2ccc(N(C)C)cc2)c2ccc(N(C)C)cc2)cc1 [METHYLROSANILINE] | 59.8 | 28.6 |
| COc1ccc(CCN2CCC(CN(C)Cc3cnn(-c4ccccc4)c3)CC2)cc1 | 15 | 21.3 |
| CN(C)c1ccc(N2C(N)=NC(N)=NC2(C)C)cc1 | 1.21 | 2.64 |
| COc1cccc(C=Cc2nc(=O)c3ccccc3o2)c1OC | 11.5 | 40.6 |
| O=C(NC1CCCC1)c1ccc(N2CCC(NCc3cccc(C(F)(F)F)c3)CC2)cc1 | 3.83 | 22.1 |
| CCC(C)NCC(O)(c1ccc(Cl)cc1)c1ccc(Cl)cc1 (stereo not given) | 10.6 | 17.4 |
| COCCN(C(=O)Cc1cccs1)C(C(=O)NCc1ccc(OC)cc1)c1ccc(C(C)C)cc1 (stereo not given) | 31.4 | 10.2 |
| COc1cc(C(=O)Nc2ccc(-c3nc4ccccc4[nH]3)cc2)cc(OC)c1OC | 19.1 | 27 |
| COc1ccccc1C(=O)ON=C(N)Cc1cccc2ccccc12 | 32.7 | 52.3 |
| CCOC(=O)C1=CN(C)C=C(C(=O)OCC)C1c1cc(Br)c(OCC)c(OC)c1 | 10.7 | -1.96 |
| Cc1cccc(N2C(=O)C3C(C2=O)C2(c4ccccc4)C(=O)C3(c3ccccc3)C(c3ccc4c(c3)OCO4)=C2c2ccc3c(c2)OCO3)c1 (stereo not given) | 16.4 | 23.1 |
| OC(CNC1CCCCC1)Cn1c2ccc(I)cc2c2cc(I)ccc21 (stereo not given) | 10.9 | 16.9 |
| O=c1cc(NC2CCN(CCCc3ccccc3)CC2)c2cc(Cl)ccc2o1 | 14.3 | 24.2 |
| COc1ccc(C(C)=O)cc1N1C(=O)C2C(C1=O)C1(c3ccccc3)C(=O)C2(c2ccccc2)C(c2ccc(C)cc2)=C1c1ccc(C)cc1 (stereo not given) | 28.1 | 22.4 |
| CCOc1cc2c(cc1OCC)C(c1cc(Cl)ccc1O)NCC2 (stereo not given) | -6.67 | 7.45 |
| OC1=C2C(=Nc3ccccc3SC2c2ccccc2)c2ccccc21 (stereo not given) | 14.1 | 8.39 |
| Cc1ccccc1OCCSc1nc2ccc(NC(=O)c3ccccc3)cc2s1 | 9.66 | 22 |
| O=C(NNc1cc(N2CCCC2)nc(N2CCCC2)n1)c1ccccc1 | 30.6 | 12 |
| CCOC(=O)C1(Cc2ccccc2)CCN(Cc2cccc(OC)c2O)CC1 | 8.77 | 9.17 |
| Oc1ccc(-c2nc(-c3ccc4oc5ccc(-c6[nH]c(-c7ccc(O)cc7)nc6-c6ccccc6)cc5c4c3)c(-c3ccccc3)[nH]2)cc1 | 13 | 19.2 |
| CCOC(=O)c1c(NC(=O)c2ccccc2)sc2c(O)c(CN(CC)CC)ccc12 | 16 | 51.8 |
| O=C(O)C1Cc2c([nH]c3ccccc23)C(c2ccc(Cl)cc2Cl)N1 (stereo not given) | 8.72 | 13.7 |
| O=C1c2ccccc2-c2nnc(-c3ccc(Br)cc3)cc21 | 1.49 | 9.33 |
| CCCN(CCC)CCCNC(=O)c1cc2c(-c3ccc(OC)c(OC)c3)nn(C)c2s1 | -0.011 | 5.83 |
| COc1ccc(/C=C2/SC(=Nc3ccccc3)NC2=O)cc1 | 24.4 | 15.9 |
